In patent publication US11608343B2, “Substituted pyrimido[5,4-d]pyrimidines as HER2 inhibitors” (Boehringer Ingelheim International GmbH, priority 2020, dated 2023):

What was measured:
Format in all cases: cell-based
HER2 YVMA = target: T1, HER2 YVMA (Homo sapiens, UniProt P04626, INS775YVMA); assay: pHER2 (ERBB2) YVMA assay: phosphorylation of HER2 YVMA at Tyr1221/1222 in HEK cells (AlphaScreen Surefire); conditions: doxycycline induced, 4 h with compound
T1 construct: expressed in transfected cells; host or cells: human HEK cells, retroviral transduction, doxycycline-inducible expression
Method: For the assay, HEK HER2 YVMA cells are seeded in MEM medium with 10% FBS. 4 hours prior to compound addition, HER2 YVMA expression is induced using 1 μg/mL Doxycycline. […] Subsequently, 60.000 cells/well in 60 μL are added. Cells are incubated with compound for 4 h at 37° C. […] The mixture is incubated at a temperature of 20-25° C. with shaking (700 rpm) for 20 min. After centrifugation, 4 μL of the lysate are transferred to Proxiplates. […] Plates are shaken for 1 min (1400 rpm) and incubated for 2 h at a temperature of 20-25° C. in the dark. […] Plates are shaken for 1 min (1400 rpm) and incubated for 2 h at a temperature of 20-25° C. in the dark. Plates are subsequently analyzed using an Envision reader platform. […] IC50 values are computed from these values in the MEGASTAR IC50 application using a 4 parametric logistic model. […] The results of the assay are provided as IC50 values.

EGFR wild type (WT) = target: T2, EGFR wild type (WT) (Homo sapiens, UniProt P00533); assay: pEGFR assay: phosphorylation of EGFR at Tyr1068 in HEK cells expressing EGFR WT (AlphaScreen Surefire); conditions: 4 h with compound
T2 construct: expressed in transfected cells; host or cells: human HEK cells (ATCC CRL-1573), retroviral transduction
Method: This assay quantifies the phosphorylation of EGFR at Tyr1068 and is used to measure the inhibitory effect of compounds on the transgenic EGFR wild type (WT) protein expressed in HEK cells.
Transduced cells are selected using puromycin. p-EGFR Tyr1068 is determined using the AlphaScreen Surefire pEGF Receptor (Tyr1068) Assay (PerkinElmer, TGRERS). For the assay, HEK EGFR WT cells are seeded in MEM medium with 10% FBS. […] Subsequently, 60.000 cells/well in 60 μL are added. Cells are incubated with compound for 4 h at 37° C. […] The mixture is incubated at a temperature of 20-25° C. with shaking (700 rpm) for 20 min. After centrifugation, 4 μL of the lysate are transferred to Proxiplates. […] Plates are shaken for 1 min (1400 rpm) and incubated for 2 h at a temperature of (20-25° C.) in the dark. […] Plates are shaken for 1 min (1400 rpm) and incubated for 2 h at a temperature of (20-25° C.) in the dark. Plates are subsequently analyzed using an Envision reader platform. […] IC50 values are computed from these values in the MEGASTAR IC50 application using a 4 parametric logistic model.
This cellular phospho-EGFR (pEGFR) compound dose-response assay quantifies the phosphorylation of EGFR at Tyr1068 in HEK cells expressing EGFR WT. The results of the assay are provided as IC50 values.

[1] = system: NCI-H2170 (HER2 wild type) cells; assay: Tumor cell line proliferation assay, NCI-H2170 (HER2 wild type), CellTiter-Glo; conditions: Homo sapiens, 72 h, read-out: GI50 NCI H-2170 HER2 wt amp.
Method: (§1) For proliferation assays, NCI-H2170 (HER2 wild type), NCI-H2170 HER2 YVMA and EGFR WT dependent A431 cells are used. NCI-H2170 HER2 YVMA or NCI-H2170 cells are seeded into 96-well plates at 750 cells/60 μL in growth media (RPMI ATCC+10% FCS, +Penicillin/Streptomycin). […] Compounds are added by using a HP D3000 Digital Dispenser one day after plating the cells. All treatments are performed in technical triplicates. Treated cells are incubated for 72 h at 37° C. with 5% CO2. CellTiter-Glo® Luminescent Cell Viability Assay (Promega) is performed and chemoluminescence is measured by using the multilabel Plate Reader VICTOR X4. The raw data are imported into and analyzed with the Boehringer Ingelheim proprietary software MegaLab (curve fitting based on the program PRISM, GraphPad Inc.).

[2] = system: NCI-H2170 HER2 YVMA cells; assay: Tumor cell line proliferation assay, NCI-H2170 HER2 YVMA, CellTiter-Glo; conditions: Homo sapiens, 72 h, read-out: GI50 NCI H-2170 HER2 YVMA
Excerpt: HER2 YVMA Tumor Cell Line Model Generation and Proliferation Assays
Homology-directed genome engineering is employed to insert a 12 nucleotide sequence encoding YVMA into Exon 20 of the genomic HER2 locus in NCI-H2170 cells. […] The DNA template containing the HER2 exon 20 YVMA insertion variant was obtained from GenScript. PCR followed by Sanger sequencing is used to confirm the presence of the 12-nucleotide insertion in HER2 Exon 20 resulting in the YVMA amino acid duplication.
as §1

[3] = system: EGFR WT dependent A431 cells; assay: Tumor cell line proliferation assay, EGFR WT dependent A431 cells, CellTiter-Glo; conditions: Homo sapiens, A-431, 72 h, read-out: GI50 A431 EGFR wt amp.
Method: as §1

Ba/F3 cells HER2 WT = assay: Ba/F3 proliferation assay, HER2 WT, CellTiter-Glo; conditions: Mus musculus, BaF3, 72 h
Method: (§2) Ba/F3 Cell Model Generation and Proliferation Assays
(§3) Plasmids containing HER2 mutants and EGFR WT were obtained from GeneScript. To generate EGFR/HER2-dependent Ba/F3 models, Ba/F3 cells are transduced with retroviruses containing vectors that harbor EGFR WT, HER2 WT or HER2 mutants (YVMA). Platinum-E cells (Cell Biolabs) are used for retrovirus packaging. Retrovirus is added to Ba/F3 cells. To ensure infection, 4 μg/mL polybrene is added and cells are spin-infected. Infection efficiency is confirmed by measuring GFP-positive cells using a cell analyzer. Cells with an infection efficiency of 10% to 20% are further cultivated and puromycin selection with 1 μg/mL is initiated. As a control, parental Ba/F3 cells are used to assess the selection status. Selection is considered successful when parental Ba/F3 cells cultures die. To evaluate the transforming potential of HER2 mutations, the growth medium is no longer supplemented with IL-3. Ba/F3 cells harboring the empty vector are used as a control. A switch from IL-3 to EGF is performed for Ba/F3 cells expressing EGFR WT known for its dependency on EGF ligand. Approximately ten days before conducting the experiments, puromycin is left out. For proliferation assays (data in tables 10 and 12), Ba/F3 cells are seeded into 96-well plates at 5×10^3 cells/100 μL in growth media. Compounds are added by using a HP D3000 Digital Dispenser. All treatments are performed in technical triplicates. Treated cells are incubated for 72 h at 37° C. with 5% CO2. A CellTiter-Glo® Luminescent Cell Viability Assay (Promega) is performed and chemoluminescence is measured by using the multilabel Plate Reader VICTOR X4. The raw data are imported into and analyzed with the Boehringer Ingelheim proprietary software MegaLab (curve fitting based on the program PRISM, GraphPad Inc.).

[4] = system: Ba/F3 cells HER2 mutants (YVMA); assay: Ba/F3 proliferation assay, HER2 YVMA, CellTiter-Glo; conditions: Mus musculus, BaF3, 72 h
Method: as §2, §3

[5] = system: Ba/F3 cells expressing EGFR WT; assay: Ba/F3 proliferation assay, EGFR WT (EGF dependent), CellTiter-Glo; conditions: Mus musculus, BaF3, EGF instead of IL-3, 72 h, read-out: GI50 BAF3 EGF dep.
Method: as §2, §3

T1 sequence (P04626 with tags, fused parts or gaps INS775YVMA): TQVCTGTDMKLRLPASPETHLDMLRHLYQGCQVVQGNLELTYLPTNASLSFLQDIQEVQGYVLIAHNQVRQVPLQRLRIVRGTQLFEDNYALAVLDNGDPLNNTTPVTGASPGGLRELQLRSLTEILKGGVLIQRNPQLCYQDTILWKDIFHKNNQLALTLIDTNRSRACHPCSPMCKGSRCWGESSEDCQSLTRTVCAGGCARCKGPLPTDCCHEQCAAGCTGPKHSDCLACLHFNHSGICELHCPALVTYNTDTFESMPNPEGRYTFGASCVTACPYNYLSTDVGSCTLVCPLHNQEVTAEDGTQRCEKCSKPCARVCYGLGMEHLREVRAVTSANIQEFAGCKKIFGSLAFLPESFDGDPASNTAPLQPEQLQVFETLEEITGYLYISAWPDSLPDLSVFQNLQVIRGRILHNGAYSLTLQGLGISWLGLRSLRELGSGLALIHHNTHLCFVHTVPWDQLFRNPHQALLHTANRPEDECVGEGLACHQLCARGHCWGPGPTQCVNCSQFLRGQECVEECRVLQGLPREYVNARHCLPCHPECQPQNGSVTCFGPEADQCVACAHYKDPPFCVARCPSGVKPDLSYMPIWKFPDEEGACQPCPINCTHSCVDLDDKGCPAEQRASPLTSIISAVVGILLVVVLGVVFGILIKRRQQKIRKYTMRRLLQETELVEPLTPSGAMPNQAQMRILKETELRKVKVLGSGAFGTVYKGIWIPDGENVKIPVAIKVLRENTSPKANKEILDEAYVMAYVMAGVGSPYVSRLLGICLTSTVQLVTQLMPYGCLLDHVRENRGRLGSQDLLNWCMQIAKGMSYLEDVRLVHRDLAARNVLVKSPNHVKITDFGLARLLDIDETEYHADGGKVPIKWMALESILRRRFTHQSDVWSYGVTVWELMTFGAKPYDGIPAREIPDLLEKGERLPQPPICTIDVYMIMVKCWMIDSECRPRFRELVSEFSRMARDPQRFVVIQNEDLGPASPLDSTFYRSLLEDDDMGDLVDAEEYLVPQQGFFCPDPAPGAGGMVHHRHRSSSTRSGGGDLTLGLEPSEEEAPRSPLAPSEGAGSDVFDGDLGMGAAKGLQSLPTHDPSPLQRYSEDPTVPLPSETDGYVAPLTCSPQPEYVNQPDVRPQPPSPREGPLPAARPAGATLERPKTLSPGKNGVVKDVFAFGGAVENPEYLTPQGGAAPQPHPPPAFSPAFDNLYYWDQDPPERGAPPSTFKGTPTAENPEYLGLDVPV
T2 sequence (P00533 25-1210): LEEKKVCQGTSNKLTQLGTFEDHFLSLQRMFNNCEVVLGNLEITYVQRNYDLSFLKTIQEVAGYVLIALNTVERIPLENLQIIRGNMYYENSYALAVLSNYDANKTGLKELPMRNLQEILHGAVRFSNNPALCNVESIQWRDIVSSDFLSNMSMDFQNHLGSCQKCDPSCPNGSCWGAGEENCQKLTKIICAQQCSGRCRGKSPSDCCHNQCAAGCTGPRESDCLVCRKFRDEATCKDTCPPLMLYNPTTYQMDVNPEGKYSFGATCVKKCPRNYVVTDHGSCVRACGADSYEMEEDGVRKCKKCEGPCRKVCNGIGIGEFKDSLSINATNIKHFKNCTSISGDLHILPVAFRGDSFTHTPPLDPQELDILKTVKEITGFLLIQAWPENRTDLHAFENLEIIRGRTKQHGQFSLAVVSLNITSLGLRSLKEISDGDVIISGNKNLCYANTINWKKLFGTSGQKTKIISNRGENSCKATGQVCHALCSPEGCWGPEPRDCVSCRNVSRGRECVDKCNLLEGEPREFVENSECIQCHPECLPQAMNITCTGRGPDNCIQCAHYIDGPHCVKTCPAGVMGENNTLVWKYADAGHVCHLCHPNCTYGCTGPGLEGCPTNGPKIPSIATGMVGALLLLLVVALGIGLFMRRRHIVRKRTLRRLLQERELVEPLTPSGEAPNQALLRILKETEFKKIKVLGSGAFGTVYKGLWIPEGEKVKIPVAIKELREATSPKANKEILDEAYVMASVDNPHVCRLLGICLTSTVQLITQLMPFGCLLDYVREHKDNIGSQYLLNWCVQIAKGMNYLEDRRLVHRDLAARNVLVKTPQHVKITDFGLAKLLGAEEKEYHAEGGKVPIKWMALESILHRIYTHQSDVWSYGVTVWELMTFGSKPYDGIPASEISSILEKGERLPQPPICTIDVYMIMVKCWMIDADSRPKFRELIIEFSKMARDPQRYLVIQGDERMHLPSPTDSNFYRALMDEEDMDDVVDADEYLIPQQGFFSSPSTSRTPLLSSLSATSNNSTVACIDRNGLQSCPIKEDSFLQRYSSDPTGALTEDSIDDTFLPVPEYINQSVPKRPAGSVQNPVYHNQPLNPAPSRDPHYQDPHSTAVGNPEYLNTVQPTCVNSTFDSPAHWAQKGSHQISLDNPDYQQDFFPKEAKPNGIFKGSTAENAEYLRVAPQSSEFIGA

| SMILES | IC50 (HER2 YVMA) [nM] | IC50 (EGFR wild type (WT)) [nM] | GI50 [3] [nM] | GI50 (Ba/F3 cells HER2 WT) [nM] | GI50 [4] [nM] | GI50 [5] [nM] | GI50 [1] [nM] | GI50 [2] [nM] |
| --- | --- | --- | --- | --- | --- | --- | --- | --- |
| C=CC(=O)NC1CCN(c2ncc3ncnc(Nc4cc(F)c(Oc5ccn6ncnc6c5)c(Cl)c4)c3n2)CC1 [Example I-06] | 44 | 773 | > 5000 | 1 | 31 | > 5000 | 12 | 215 |
| Cc1cc(Nc2ncnc3ccc(NC4=NC(C)(C)CO4)cc23)ccc1Oc1ccn2ncnc2c1 [Tucatinib, reference compound] | 4 | 1410 | 4220 | 10 | 338 | 2970 | 58 | 798 |
| C=CC(=O)Nc1cccc(-n2c(=O)c(Oc3ccc(F)cc3F)cc3cnc(Nc4cnn(C)c4)nc32)c1 [WO 2019/046775 Comp. 2, reference compound] | 11 | 7 | 16 | 3 | 14 | 13 | 22 | 34 |
| CCOc1cc2ncc(C#N)c(Nc3ccc(OCc4ccccn4)c(Cl)c3)c2cc1NC(=O)/C=C/CN(C)C [Neratinib, reference compound] | – | – | 55 | – | 5 | 14 | 3 | 37 |

Continued, in another order:

| IC50 (HER2 YVMA) [nM] | IC50 (EGFR wild type (WT)) [nM] | GI50 [3] [nM] | GI50 (Ba/F3 cells HER2 WT) [nM] | GI50 [4] [nM] | GI50 [5] [nM] | SMILES | GI50 [1] [nM] | GI50 [2] [nM] |
| --- | --- | --- | --- | --- | --- | --- | --- | --- |
| – | – | 199 | – | 44 | 70 | C=CC(=O)N1CCC[C@@H](n2nc(-c3ccc(Oc4ccccc4)cc3)c3c(N)ncnc32)C1 [Ibrutinib, reference compound] | 16 | 132 |
| 33 | 317 | > 5000 | – | 60 | 1190 | C=CC(=O)Nc1ccc2ncnc(Nc3ccc(Oc4ccc5c(c4)ncn5C)c(C)c3)c2c1 [WO 2007/059257 Ex. 185, reference compound] | 108 | 926 |
| 5 | – | 1 | 1 | 2 | 1 | C=CC(=O)N1CCC(Oc2cc3c(Nc4ccc(Cl)c(Cl)c4F)ncnc3cc2OC)CC1 [Poziotinib, reference compound] | 1 | 5 |
| 4 | 137 | > 2000 | – | 29 | 3270 | C=CC(=O)N1CC[C@@H](Nc2ncc3ncnc(Nc4ccc(Oc5ccn6ncnc6c5)c(C)c4)c3n2)C1 [Example I-18] | 10 | 87 |
| 13 | – | > 5000 | 1 | 16 | 1540 | C=CC(=O)NC1CCN(c2ncc3ncnc(Nc4ccc(Oc5ccc6c(c5)ncn6C)c(C)c4)c3n2)CC1 [Example I-01] | 6 | 33 |
